Here are results for two molecules from patent US20060078874A1, “Use of nuclear hormone receptors” (Novo Nordisk A/S, priority 2002, published 2006).

Data set [1] relates to naked oocytes (NO). As to the kind of experiment: Agonistic oocyte assay, naked oocytes (NO / NkO test). The following applies: for % GVBD + PB: NkO test. In kind it is cell-based, mouse. The method, then:
(§1) An Agonistic Oocyte Assay Can be Performed as Follows: Oocytes were obtained from immature female mice (C57BL/6J×DBA/2J F1-hybrid, Bomholtgaard, Denmark) weighing 13-16 grams, that were kept under controlled temperature (20-22° C.), light (lights on 06.00-18.00) and relative humidity (50-70%). The mice received an intra-peritoneal injection of 0.2 ml gonadotropins (Gonal-F, Serono) containing 20 IU FSH and 48 hours later the animals were killed by cervical dislocation. The ovaries were dissected out and the oocytes were isolated in Hx-medium (see below) under a stereo microscope by manual rupture of the follicles using a pair of 27 gauge needles. Spherical oocytes displaying an intact germinal vesicle (hereinafter designated GV) were divided in cumulus enclosed oocytes (hereinafter designated CEO) and naked oocytes (hereinafter designated NO) and placed in α-minimum essential medium (α-MEM without ribonucleosides, Gibco BRL, Cat. No. 22561) supplemented with 3 mg/ml bovine serum albumin (BSA, Sigma Cat. No. A-7030), 5 mg/ml human serum albumin (HSA, Statens Seruminstitute, Denmark), 0.23 mM pyruvate (Sigma, Cat. No S-8636), 2 mM glutamine (Flow Cat. No. 16-801), 100 IU/ml penicillin and 100 μg/ml streptomycin (Flow, Cat No. 16-700). This medium was supplemented with 3 mM hypoxanthine (Sigma Cat. No. H-9377) and designated Hx-medium. The oocytes were rinsed three times in Hx-medium and oocytes of uniform size were divided into groups of CEO and NO. CEO and NO were cultured in 4-well multidishes (Nunclon, Denmark) in which each well contained 0.4 ml of Hx-medium. One control well (i.e., 35-45 oocytes cultured in identical medium with no addition of test compound) was always cultured simultaneously with 3 test wells (35-45 oocytes per well supplemented with test compound). The oocytes were cultured in a humidified atmosphere of 5% CO2 in air for 24 hours at 37° C. By the end of the culture period, the number of oocytes with germinal vesicle (hereinafter designated GV), GVBD, and polar body (herein designated PB), respectively, were counted using a stereomicroscope ([…] MZ 12). The percentage GVBD, defined as percentage of oocytes undergoing GVBD per total number of oocytes in that well, was calculated as: % GVBD=100×(number of GVBD+number of PB)/(total number oocytes). The % PB was defined as percentage of oocytes displaying one extruded polar body per total number of oocytes in that well. […] The relative effect of the tested compound is calculated as follows: Relative effect=100×((test GVBD %-negative control GVBD %)/(FF-MAS GVBD %-negative control GVBD %)).

For data set [2], the target named is T1, LXRβ (Homo sapiens, UniProt P55055).
T1 sequence (P55055 1-460): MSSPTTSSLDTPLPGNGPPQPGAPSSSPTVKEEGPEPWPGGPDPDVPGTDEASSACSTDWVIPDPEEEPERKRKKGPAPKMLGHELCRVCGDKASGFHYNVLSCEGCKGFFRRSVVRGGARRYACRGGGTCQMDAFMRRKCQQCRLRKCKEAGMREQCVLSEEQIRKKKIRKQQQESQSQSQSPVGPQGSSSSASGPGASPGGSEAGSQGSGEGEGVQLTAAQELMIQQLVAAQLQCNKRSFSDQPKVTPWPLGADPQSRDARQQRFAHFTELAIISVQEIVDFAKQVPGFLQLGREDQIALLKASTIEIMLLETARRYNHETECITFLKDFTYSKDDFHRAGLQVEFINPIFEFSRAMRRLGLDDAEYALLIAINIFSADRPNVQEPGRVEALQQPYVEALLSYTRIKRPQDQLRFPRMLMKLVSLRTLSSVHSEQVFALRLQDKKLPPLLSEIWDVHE
As to the kind of experiment: Agonist activity against LXRβ.

In data set [3] the target is T2, LXRα (Homo sapiens, UniProt Q13133).
T2 sequence (Q13133 1-447): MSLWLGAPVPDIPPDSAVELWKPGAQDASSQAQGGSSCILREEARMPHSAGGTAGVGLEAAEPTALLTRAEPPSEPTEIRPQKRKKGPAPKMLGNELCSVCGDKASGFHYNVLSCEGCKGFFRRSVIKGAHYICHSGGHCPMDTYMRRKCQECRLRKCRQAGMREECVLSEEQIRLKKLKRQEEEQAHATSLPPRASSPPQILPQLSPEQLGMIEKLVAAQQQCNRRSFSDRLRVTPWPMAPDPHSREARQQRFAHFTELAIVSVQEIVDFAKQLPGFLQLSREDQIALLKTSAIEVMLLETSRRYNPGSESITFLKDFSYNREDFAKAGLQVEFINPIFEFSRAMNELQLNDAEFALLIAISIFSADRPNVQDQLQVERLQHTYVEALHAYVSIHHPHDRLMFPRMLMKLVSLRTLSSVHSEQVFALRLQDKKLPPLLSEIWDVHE
Kind of data set: Agonist activity against LXRα.

Data set [4] relates to cumulus enclosed oocytes (CEO). As to the kind of experiment: Oocyte maturation assay, cumulus enclosed oocytes (CEO test). In kind it is cell-based, mouse. The method, then: as §1
For the next data set, the target named is T3, PXR (Homo sapiens, UniProt O75469).
T3 sequence (O75469 1-434): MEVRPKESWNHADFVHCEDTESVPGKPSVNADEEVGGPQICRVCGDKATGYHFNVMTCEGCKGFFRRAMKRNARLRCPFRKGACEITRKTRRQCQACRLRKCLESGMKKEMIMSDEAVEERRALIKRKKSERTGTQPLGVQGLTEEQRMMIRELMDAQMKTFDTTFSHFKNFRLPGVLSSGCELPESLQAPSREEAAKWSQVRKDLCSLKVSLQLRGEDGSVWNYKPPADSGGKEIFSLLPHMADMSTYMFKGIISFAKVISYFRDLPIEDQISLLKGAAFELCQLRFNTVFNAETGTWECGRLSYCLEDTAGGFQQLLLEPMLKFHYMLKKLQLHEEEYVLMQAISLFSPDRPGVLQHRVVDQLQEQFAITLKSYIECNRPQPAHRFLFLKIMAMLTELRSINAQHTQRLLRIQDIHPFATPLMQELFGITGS
Kind of data set: Agonist activity against PXR.

The target of data set [5] is T2, LXRα. The following applies: Janowski et al. Nature 383 (1996); no direct binding explored; cited from earlier work.
For data set [6], the system named is naked oocytes (NO). The following applies: Byskov et al. Nature 374 (1995); cited from earlier work.
The target of data set [7] is T2, LXRα. Kind of data set: Recruitment of co-factors to LXRα (HTRF assay). It is filed as biochemical. The source says: (§2) The HTRF assay is described in Methods 25 (2001), 54-61. (HTRF is an abbreviation for homogeneous time-resolved fluorescence.)
(§3) The EC50 value is the dose which leads to a 50% saturation.
In general terms: In TR-FRET formats the signal depends on donor and acceptor labels being close together.

Data set [8] concerns the target T1, LXRβ. Kind of data set: Recruitment of co-factors to LXRβ (HTRF assay). In kind it is biochemical.
Text: as §2, §3

The next data set has as its system FXRbeta. Kind of data set: FFMAS on mouse FXRbeta (FIG. 3). In kind it is biochemical.
In another data set the target is T4, FXRalpha (Homo sapiens, UniProt Q96RI1).
T4 sequence (Q96RI1 1-486): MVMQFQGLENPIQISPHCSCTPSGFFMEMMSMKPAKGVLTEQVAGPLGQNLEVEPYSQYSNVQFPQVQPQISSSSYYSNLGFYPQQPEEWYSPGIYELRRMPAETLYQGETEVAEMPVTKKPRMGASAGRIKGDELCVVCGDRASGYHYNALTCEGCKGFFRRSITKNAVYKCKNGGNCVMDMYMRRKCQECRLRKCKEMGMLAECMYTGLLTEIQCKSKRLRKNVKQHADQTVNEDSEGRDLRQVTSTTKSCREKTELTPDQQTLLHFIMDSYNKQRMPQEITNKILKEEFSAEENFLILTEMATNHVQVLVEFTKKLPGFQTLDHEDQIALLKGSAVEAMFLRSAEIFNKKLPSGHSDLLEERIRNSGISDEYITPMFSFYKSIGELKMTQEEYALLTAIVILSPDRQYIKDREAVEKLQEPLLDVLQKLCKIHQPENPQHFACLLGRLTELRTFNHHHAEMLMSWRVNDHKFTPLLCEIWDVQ
Kind of data set: FFMAS on human FXRalpha (FIG. 2). In kind it is biochemical.

Setting [9] is: dose which leads to 50% saturation.
Setting [10] is: 10 μM, naked oocytes (NO) cultured in vitro for 24 hours in Hx-medium.

The EC50 is the concentration needed to bring the measured effect to its halfway point.

With `O=C(O)Cc1cccc(OCCCN(Cc2cccc(C(F)(F)F)c2Cl)CC(c2ccccc2)c2ccccc2)c1` [90-8684, 2-(3-{3-[[2-chloro-3-(trifluoromethyl)benzyl](2,2-diphenylethyl)amino]propoxy}phenyl)acetic acid], the “% GVBD + PB” value in the data set with naked oocytes (NO) [1] (Hx + 5 μM) turned out to be 45 ± 5%; with naked oocytes (NO) [1] (Hx + 10 μM) it was 49 ± 8%; in the data set on naked oocytes (NO) [1] (Hx + 15 μM) it was 54 ± 5%; in [4] (Hx + 2.5 μM) it was 69 ± 3%; in data set [4] (Hx + 5 μM) it was 71 ± 6%; in data set [4] (Hx + 10 μM) it was 86 ± 7%. Besides, the “Meiosis-inducing effect in an oocyte maturation assay” value in the data set with naked oocytes (NO) [1] (mouse oocytes, NkO and CEO tests) is reported as “dose-dependent maturation of the oocytes”. Also, the “Activity against LXRβ” value on LXRβ [2] is “showed activity”. Moreover, the “Activity against LXRα” value on LXRα [3] was “showed activity”. In addition, on PXR, the “Activity against PXR” value is “showed activity”.

As for `CC(C)=CCC[C@@H](C)[C@H]1CC=C2C3=C(CC[C@@]21C)[C@@]1(C)CC[C@H](O)C(C)(C)[C@@H]1CC3` [FF-MAS, 4,4-dimethyl-5α-cholesta-8,14,24-triene-3β-ol], the “Transactivation of LXRα” value on LXRα [5] is recorded as “able to transactivate LXRα”. Further, the “Induction of meiosis in NO in vitro” value in the data set on naked oocytes (NO) [6] was “induce meiosis”. The “Behaviour on human LXRs (LXRα)” value at LXRα [7] (FIGS. 1A and 1B) is “agonist”. Besides, the EC50 on LXRα [7] (setting [9]) was around 67 nM; on LXRβ [8] (setting [9]), around 21 nM. The “Mean Relative Effect” value in the data set on naked oocytes (NO) [1] (10 μM, NO, 24 hours, indexed: control 0, FF-MAS 100) amounted to 100. Also, in the data set on naked oocytes (NO) [1] (setting [10]), the “Mean % GVBD” value stood at 86.1%. Further, the “Mean % PB” value with naked oocytes (NO) [1] (setting [10]) is given as 28.5%. For the same molecule, the figures for the “% GVBD + PB” value (with naked oocytes (NO) [1] (Hx + 10 μM); in data set [4] (Hx + 10 μM)) were 90 ± 8% and 78 ± 9%, respectively. Further, the “Behaviour on human LXRs (LXRβ)” value at LXRβ [8] (FIGS. 1A and 1B) is listed as “agonist”. In the data set with FXRbeta, the “Behaviour on mouse FXRbeta” value is on record as “partial agonist”. Moreover, the “Behaviour on human FXRalpha” value on FXRalpha is given as “partial agonist”.
